Measured values reported in patent US10494366B2, “Pesticidally active amide heterocyclic derivatives with sulphur containing substituents” (Syngenta Participations AG, priority 2014, dated 2019).

Key:
Assay type in all cases: in vivo
[1] = tested on: Spodoptera littoralis (Egyptian cotton leaf worm); assay: Example B1: Spodoptera littoralis, sprayed cotton leaf discs; conditions: foliar, 72 h, application rate 200 ppm, L1 larvae, 3 days after infestation, read-out: control in at least one of the three categories (mortality, anti-feedancy or growth inhibition)
Experimental: Cotton leaf discs were placed on agar in 24-well microtiter plates and sprayed with aqueous test solutions prepared from 10,000 ppm DMSO stock solutions. After drying the leaf discs were infested with five L1 larvae. The samples were assessed for mortality, anti-feedant effect, and growth inhibition in comparison to untreated samples 3 days after infestation. Control of Spodoptera littoralis by a test sample is when at least one of mortality, anti-feedant effect, and growth inhibition is higher than the untreated sample.

[2] = tested on: Diabrotica balteata (corn root worm); assay: Example B4: Diabrotica balteata, sprayed maize sprouts; conditions: 96 h, application rate 200 ppm, L2 larvae, 4 days after infestation, read-out: effect in at least one of the two categories (mortality or growth inhibition)
Experimental: Maize sprouts, placed on an agar layer in 24-well microtiter plates were treated with aqueous test solutions prepared from 10,000 ppm DMSO stock solutions by spraying. After drying, the plates were infested with L2 larvae (6 to 10 per well). The samples were assessed for mortality and growth inhibition in comparison to untreated samples 4 days after infestation.

[3] = tested on: Plutella xylostella (diamond back moth); assay: Example B3: Plutella xylostella, treated artificial diet; conditions: 120 h, application rate 200 ppm, L2 larvae, 5 days after infestation, read-out: effect in at least one of the two categories (mortality or growth inhibition)
Experimental: 24-well microtiter plates with artificial diet were treated with aqueous test solutions prepared from 10,000 ppm DMSO stock solutions by pipetting. After drying, the plates were infested with L2 larvae (10 to 15 per well). The samples were assessed for mortality and growth inhibition in comparison to untreated samples 5 days after infestation.

[4] = tested on: Euschistus heros (neotropical brown stink bug); assay: Example B6: Euschistus heros, sprayed soybean leaf; conditions: 120 h, application rate 200 ppm, N-2 nymphs, 5 days after infestation
Description: Soybean leaf on agar in 24-well microtiter plates were sprayed with aqueous test solutions prepared from 10,000 ppm DMSO stock solutions. After drying the leaf were infested with N-2 nymphs.

CCS(=O)(=O)c1cc(-c2ncc(C(F)(F)F)s2)cnc1C(=O)/N=c1\sc(C(F)(F)F)nn1C [Compound P58]
percent control (mortality, anti-feedant effect or growth inhibition) at 200 ppm [1]: ≥ 80%
percent effect (mortality or growth inhibition) at 200 ppm [2]: ≥ 80%

CCS(=O)(=O)c1ccc(-c2cnc(C(=O)/N=c3\sc(C(F)(F)F)nn3C)c(S(=O)(=O)CC)c2)cc1 [Compound P4]
percent control (mortality, anti-feedant effect or growth inhibition) at 200 ppm [1]: ≥ 80%
percent effect (mortality or growth inhibition) at 200 ppm [3]: ≥ 80%
percent effect (mortality or growth inhibition) at 200 ppm [2]: ≥ 80%

CCS(=O)(=O)c1cc(-c2cc(Cl)cc(Cl)c2)cnc1C(=O)/N=c1\sc(C(F)(F)F)nn1C [Compound P24]
percent control (mortality, anti-feedant effect or growth inhibition) at 200 ppm [1]: ≥ 80%

CCS(=O)(=O)c1cc(-c2ccc(SC)cc2)cnc1C(=O)/N=c1\sc(C(F)(F)F)nn1C [Compound P38]
percent control (mortality, anti-feedant effect or growth inhibition) at 200 ppm [1]: ≥ 80%
percent effect (mortality or growth inhibition) at 200 ppm [3]: ≥ 80%
percent effect (mortality or growth inhibition) at 200 ppm [2]: ≥ 80%

CCS(=O)(=O)c1cc(-c2cc(C#N)ccn2)cnc1C(=O)/N=c1\sc(C(F)(F)F)nn1C [Compound P62]
percent control (mortality, anti-feedant effect or growth inhibition) at 200 ppm [1]: ≥ 80%
percent effect (mortality or growth inhibition) at 200 ppm [3]: ≥ 80%
mortality at 200 ppm [4]: ≥ 80%

CCSc1cc(-n2ccc(C(F)(F)F)n2)cnc1C(=O)/N=c1\sc(C(F)(F)F)nn1C [Compound P13]
percent effect (mortality or growth inhibition) at 200 ppm [2]: ≥ 80%

CCS(=O)(=O)c1cc(-c2ncc(C#N)cn2)cnc1C(=O)/N=c1\sc(C(F)(F)F)nn1C [Compound P68]
percent effect (mortality or growth inhibition) at 200 ppm [3]: ≥ 80%
mortality at 200 ppm [4]: ≥ 80%
percent effect (mortality or growth inhibition) at 200 ppm [2]: ≥ 80%

CCS(=O)(=O)c1cc(-c2cc(F)cc(F)c2)cnc1C(=O)/N=c1\sc(C(F)(F)C(F)(F)F)nn1C [Compound P67]
percent effect (mortality or growth inhibition) at 200 ppm [3]: ≥ 80%
mortality at 200 ppm [4]: ≥ 80%
percent effect (mortality or growth inhibition) at 200 ppm [2]: ≥ 80%

CCS(=O)(=O)c1cc(-c2ccc(Cl)c(Cl)c2)cnc1C(=O)/N=c1\sc(C(F)(F)F)nn1C [Compound P36]
percent control (mortality, anti-feedant effect or growth inhibition) at 200 ppm [1]: ≥ 80%
percent effect (mortality or growth inhibition) at 200 ppm [3]: ≥ 80%
percent effect (mortality or growth inhibition) at 200 ppm [2]: ≥ 80%

CCSc1cc(-c2ccc(C(F)(F)F)cc2)cnc1C(=O)N=c1ccc(SC(F)(F)F)cn1C [Compound P15]
percent effect (mortality or growth inhibition) at 200 ppm [2]: ≥ 80%

CCS(=O)(=O)c1ccc(-c2ccc(C(F)(F)F)cc2)nc1C(=O)/N=c1\sc(C(F)(F)F)nn1C [Compound P21, (N)-3-ethylsulfonyl-N-[3-methyl-5-(trifluoromethyl)-1,3,4-thiadiazol-2-ylidene]-6-[4-(trifluoromethyl)phenyl]pyridine-2-carboxamide]
percent control (mortality, anti-feedant effect or growth inhibition) at 200 ppm [1]: ≥ 80%

CCSc1cc(-c2ccc(Cl)cc2)cnc1C(=O)/N=c1\sc(C(F)(F)C(F)(F)F)nn1C [Compound P12]
percent effect (mortality or growth inhibition) at 200 ppm [2]: ≥ 80%

CCS(=O)(=O)c1cc(-c2cccc(C(F)(F)F)c2)cnc1C(=O)/N=c1\sc(C(F)(F)F)nn1C [Compound P37]
percent control (mortality, anti-feedant effect or growth inhibition) at 200 ppm [1]: ≥ 80%
percent effect (mortality or growth inhibition) at 200 ppm [3]: ≥ 80%
percent effect (mortality or growth inhibition) at 200 ppm [2]: ≥ 80%

CCS(=O)(=O)c1cc(-c2cc(Cl)c(F)c(Cl)c2)cnc1C(=O)/N=c1\sc(C(F)(F)F)nn1C [Compound P27]
percent control (mortality, anti-feedant effect or growth inhibition) at 200 ppm [1]: ≥ 80%
percent effect (mortality or growth inhibition) at 200 ppm [3]: ≥ 80%
percent effect (mortality or growth inhibition) at 200 ppm [2]: ≥ 80%

CCS(=O)(=O)c1cc(-n2ccc(C(F)(F)F)n2)cnc1C(=O)/N=c1\sc(C(F)(F)F)nn1C [Compound P14]
percent control (mortality, anti-feedant effect or growth inhibition) at 200 ppm [1]: ≥ 80%
percent effect (mortality or growth inhibition) at 200 ppm [3]: ≥ 80%
percent effect (mortality or growth inhibition) at 200 ppm [2]: ≥ 80%

CCS(=O)(=O)c1cc(-c2cc(F)cc(F)c2)cnc1C(=O)/N=c1\sc(C(F)(F)F)nn1C [Compound P35]
percent control (mortality, anti-feedant effect or growth inhibition) at 200 ppm [1]: ≥ 80%
percent effect (mortality or growth inhibition) at 200 ppm [3]: ≥ 80%
percent effect (mortality or growth inhibition) at 200 ppm [2]: ≥ 80%
